Data taken from patent US12415987B2, “Methods and composition for producing and using immune cells and stem cells for cell-based therapies” (Angeles Therapeutics, Inc., priority 2016, dated 2025).

Key:
Assay type in all cases: cell-based, human
Pgp^+ T cells = test: Chemotherapeutic selection of T cells: Pgp+ enrichment by DiOC2(3) efflux assay; details: for % pgp+ (out of live cells): 8 days post-treatment; for % Pgp^+ (DiOC2(3)-dull) (out of live cells): 2 days post-treatment; for % Pgp+ (DiOC2(3)-dull) (gated on live cells): 7 days post-treatment;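 for all read-outs here: CD3-isolated T cells exposed to chemotherapeutics, then loaded with DiOC2(3) and left to efflux dye, PI stained, flow cytometry, Pgp+ cells read as DiOC2(3)-dull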
Protocol: Half (6 million) of the T cells were left untreated while the remaining half were treated with 10 μM of TH9402 compound. Cells were incubated at 37° C. in a water bath in dark for 40 min, washed with T-cell medium and then resuspended in TH9402-free T-cell medium. Cells were allowed to efflux TH9402 at 37° C. in dark in 10 ml of T cell medium for 2 h. Cells were centrifuged and re-suspended in fresh medium. Each sample was then plated in 2 wells of two different 6-well plates. One plate was left unexposed to light and the second plate was exposed for 1 h to light (1000×10 Lux units) from an LED lamp. […] After light exposure, cells were incubated in the XVIVO T cell medium with 5 ng/ml IL7 at 37° C. for 2 days in a 5% CO2 incubator. After 2 days, an aliquot of the cells were stained at 4° C. for 40 min with DiOC2(3) (60 ng/ml) in 10 ml RPMI with 10% FBS medium. DiOC2(3) is a known substrate of Pgp. Cells were centrifuged, washed, resuspended in 10 ml of dye-free RPMI-10% FBS medium to efflux dye at 37° C. for 90 min. After Dye efflux, the cells were stained with Propidium iodide (PI) and examined by flow cytometry.
(§4) T cells were isolated using CD3 microbeads. Cells were resuspended in T cell culture medium and treated under the following conditions. • 1. High dose Vincristine Treatment: Cells were treated with Vincristine (Sigma) at doses of 100, 250, 500, 750, 1000 ng/ml for 24 h. The following day, the medium was changed and cells cultured in Vincristine-free medium. • 2. Intermediate Dose Vincristine Treatment: Cells were treated with vincristine at intermediate doses of 5, 10, 20, 30, 50 ng/ml with continuous exposure of the drug thereafter. • 3. Low dose Vincristine Treatment: Cells were treated with vincristine at low doses 0.5, 1, 2, 2.5, 3 ng/ml with continuous exposure to the drug thereafter.
(§5) Cells were treated with Etoposide at dose 100, 500, 1000 nM • 6. Cells were treated with Adriamycin (doxorubicin) at 0.1, 0.5, 1 μg/ml
(§6) T cells treated with intermediate and high dose of vincristine were checked for Pgp^+ enrichment by DiOC2(3) efflux assay and cell death by Propidium iodide staining after 2 days of treatment. Cells were analyzed by flow cytometry.

T cells [1] = test: Chemotherapeutic selection of T cells: cell death by propidium iodide staining;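 note: CD3 microbead-isolated T cells cultured with chemotherapy drugs, dead cells scored as propidium iodide-positive by flow cytometry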
Protocol: as §4, §5, §6

PBMC = test: Photodynamic TH9402 experiment repeated with PBMC; details: PBMC rather than purified T cells
Pgp-expressing T cells = test: Photodynamic cell therapy with TH9402: Pgp+ T cells by DiOC2(3) efflux (and CD62L staining); details: for % Pgp^+ cells (DiOC2(3)-dull): after 2 days
Protocol: (§1) T cells were isolated using PAN T-cell isolation kit (Miltenyi cat no. 130-096-535) from buffy coat preparation following Ficoll-Hypaque separation and RBC lysis as described above. 12 million T cells were resuspended at 1 million cells/ml in XVIVO T cell medium (Lonza) supplemented with 5 ng/ml IL7. Half (6 million) of the T cells were left untreated while the remaining half were treated with 10 μM of TH9402 compound. Cells were incubated at 37° C. in a water bath in dark for 40 min, washed with T-cell medium and then resuspended in TH9402-free T-cell medium. Cells were allowed to efflux TH9402 at 37° C. in dark in 10 ml of T cell medium for 2 h. Cells were centrifuged and re-suspended in fresh medium. Each sample was then plated in 2 wells of two different 6-well plates. One plate was left unexposed to light and the second plate was exposed for 1 h to light (1000×10 Lux units) from an LED lamp. Alternatively, light treatment can be achieved by exposure to a fluorescent light-scanning device (PDCT-Xerox Series 4, Theratechnologies) delivering 5 J/cm^2 at wavelength of 514 nm. After light exposure, cells were incubated in the XVIVO T cell medium with 5 ng/ml IL7 at 37° C. for 2 days in a 5% CO2 incubator. After 2 days, an aliquot of the cells were stained at 4° C. for 40 min with DiOC2(3) (60 ng/ml) in 10 ml RPMI with 10% FBS medium. DiOC2(3) is a known substrate of Pgp. Cells were centrifuged, washed, resuspended in 10 ml of dye-free RPMI-10% FBS medium to efflux dye at 37° C. for 90 min. After Dye efflux, the cells were stained with Propidium iodide (PI) and examined by flow cytometry. […] Furthermore, in the group that was treated with the TH9402 compound and then exposed to light, there was further enrichment for Pgp-expressing T cells (from 10% to 80%).
(§2) After 6 days, 250 μl cell aliquot from T cells were stained with DiOC2(3), allowed to efflux the dye and then stained with CD62L-APC, a marker present on human memory stem T cells (TSCM) with stem like properties.
(§3) After 9 days, 1 ml cell aliquot from T cells were stained with DiOC2(3), allowed to efflux the dye and then stained with CD62L-APC, a marker present on human memory stem T cells (TSCM) with stem like properties. Cells were then analyzed by flow cytometry. The % of cells in the different fractions are shown in FIG. 2 and the following table which show there is a significant decline in cell viability following exposure to light in both TH9402-treated and untreated cells.

T cells [2] = test: Photodynamic cell therapy with TH9402: live T cells by flow cytometry / propidium iodide; details: for % live cells (Propidium iodide negative): after 9 days
Protocol: as §1, §2, §3

[3] = 10 μM TH9402, 1 h exposure to light
[4] = 10 μM TH9402, 1 h exposure to light, after 6 days
[5] = 10 μM TH9402, 1 h exposure to light, after 9 days
[6] = 10 μM TH9402, unexposed to light
[7] = 10 μM TH9402, unexposed to light, after 6 days
[8] = 10 μM TH9402, unexposed to light, after 9 days
[9] = 100 ng/ml for 24 h then drug-free medium
[10] = 250 ng/ml for 24 h then drug-free medium
[11] = 500 ng/ml for 24 h then drug-free medium
[12] = 750 ng/ml for 24 h then drug-free medium
[13] = 1 μg/ml for 24 h then drug-free medium

COc1cccc2c1C(=O)c1c(O)c3c(c(O)c1C2=O)C[C@@](O)(C(=O)CO)C[C@@H]3O[C@H]1C[C@H](N)[C@H](O)[C@H](C)O1 [Adriamycin, doxorubicin]
enrichment of Pgp^+ or DiOC2(3)-dull cells (in words) (Pgp^+ T cells; 1 μg/ml, after 8 days of treatment): significant enrichment | % pgp+ (out of live cells) (Pgp^+ T cells; 0.1 μg/ml): 16% | % pgp+ (out of live cells) (Pgp^+ T cells; 0.5 μg/ml): 16% | % pgp+ (out of live cells) (Pgp^+ T cells; 1 μg/ml): 27% | % Cell Death (PI+ cells) (T cells [1]; 8 days post-treatment, 0.1 μg/ml): 5% | % Cell Death (PI+ cells) (T cells [1]; 8 days post-treatment, 0.5 μg/ml): 7% | % Cell Death (PI+ cells) (T cells [1]; 8 days post-treatment, 1 μg/ml): 12%

COc1cc([C@@H]2c3cc4c(cc3[C@@H](O[C@@H]3O[C@@H]5CO[C@@H](C)O[C@H]5[C@H](O)[C@H]3O)[C@H]3COC(=O)[C@H]23)OCO4)cc(OC)c1O [Etoposide]
% pgp+ (out of live cells) (Pgp^+ T cells; 0.1 uM): 15% | % pgp+ (out of live cells) (Pgp^+ T cells; 1 uM): 15% | % pgp+ (out of live cells) (Pgp^+ T cells; 0.5 unM): 16% | % Cell Death (PI+ cells) (T cells [1]; 8 days post-treatment, 0.1 uM): 5% | % Cell Death (PI+ cells) (T cells [1]; 8 days post-treatment, 1 uM): 5% | % Cell Death (PI+ cells) (T cells [1]; 8 days post-treatment, 0.5 unM): 4%

CO[C@H]1C[C@@H]2CC[C@@H](C)[C@@](O)(O2)C(=O)C(=O)N2CCCC[C@H]2C(=O)O[C@H]([C@H](C)C[C@@H]2CC[C@@H](O)[C@H](OC)C2)CC(=O)[C@H](C)/C=C(\C)[C@@H](O)[C@@H](OC)C(=O)[C@H](C)C[C@H](C)/C=C/C=C/C=C/1C [Rapamycin]
% pgp+ (out of live cells) (Pgp^+ T cells; 100 ng/ml): 15% | % Cell Death (PI+ cells) (T cells [1]; 8 days post-treatment, 100 ng/ml): 11%

COC(=O)c1ccccc1-c1c2ccc(=N)c(Br)c-2oc2c(Br)c(N)ccc12 [TH9402]
enrichment of Pgp-expressing cells, experiment repeated with PBMC (PBMC): Essentially similar results | % Pgp^+ cells (DiOC2(3)-dull) (Pgp-expressing T cells; [3]): 80% | % Pgp^+ (DiOC2(3)-dull cells (based on dye efflux) (gated on live cells)) (Pgp-expressing T cells; [4]): 70% | % Pgp^+ (DiOC2(3)-dull), CD62L+ cells (gated on live cells) (Pgp-expressing T cells; [4]): 69% | % Pgp^+ (DiOC2(3)-dull cells (based on dye efflux) (gated on live cells)) (Pgp-expressing T cells; [5]): 79% | % Pgp^+ (DiOC2(3)-dull), CD62L+ cells (gated on live cells) (Pgp-expressing T cells; [5]): 67% | % Pgp^+ cells (DiOC2(3)-dull) (Pgp-expressing T cells; [6]): 10% | % Pgp^+ (DiOC2(3)-dull cells (based on dye efflux) (gated on live cells)) (Pgp-expressing T cells; [7]): 4% | % Pgp^+ (DiOC2(3)-dull), CD62L+ cells (gated on live cells) (Pgp-expressing T cells; [7]): 2% | % Pgp^+ (DiOC2(3)-dull cells (based on dye efflux) (gated on live cells)) (Pgp-expressing T cells; [8]): 45% | % Pgp^+ (DiOC2(3)-dull), CD62L+ cells (gated on live cells) (Pgp-expressing T cells; [8]): 21% | % live cells (P1) (T cells [2]; 10 μM TH9402, 1 h exposure to light, after 2 days): 10% | % live cells (P1) (T cells [2]; [4]): 14% | % live cells (Propidium iodide negative) (T cells [2]; [3]): 27% | % live cells (P1) (T cells [2]; 10 μM TH9402, unexposed to light, after 2 days): 78% | % live cells (P1) (T cells [2]; [7]): 75% | % live cells (Propidium iodide negative) (T cells [2]; [6]): 79%

COc1ccc(CCN(C)CCCC(C#N)(c2ccc(OC)c(OC)c2)C(C)C)cc1OC (stereo not drawn) [Verapamil]
% Cell Death (PI+ cells) (T cells [1]; 8 days post-treatment, 1 uM): 4% | % Cell Death (PI+ cells) (T cells [1]; 8 days post-treatment, 5 uM): 3% | % Cell Death (PI+ cells) (T cells [1]; 8 days post-treatment, 10 uM): 3%

CC[C@]1(O)C[C@H]2CN(CCc3c([nH]c4ccccc34)[C@@](C(=O)OC)(c3cc4c(cc3OC)N(C=O)[C@H]3[C@@](O)(C(=O)OC)[C@H](OC(C)=O)[C@]5(CC)C=CCN6CC[C@]43[C@@H]65)C2)C1 [Vincristine]
% Pgp^+ (DiOC2(3)-dull) (out of live cells) (Pgp^+ T cells; 5 ng/ml, continuous exposure): 8% | % Pgp^+ (DiOC2(3)-dull) (out of live cells) (Pgp^+ T cells; 10 ng/ml, continuous exposure): 9% | % Pgp^+ (DiOC2(3)-dull) (out of live cells) (Pgp^+ T cells; 20 ng/ml, continuous exposure): 9% | % Pgp^+ (DiOC2(3)-dull) (out of live cells) (Pgp^+ T cells; 30 ng/ml, continuous exposure): 11% | % Pgp^+ (DiOC2(3)-dull) (out of live cells) (Pgp^+ T cells; 50 ng/ml, continuous exposure): 10% | % Pgp^+ (DiOC2(3)-dull) (out of live cells) (Pgp^+ T cells; [9]): 11% | % Pgp^+ (DiOC2(3)-dull) (out of live cells) (Pgp^+ T cells; [10]): 11% | % Pgp^+ (DiOC2(3)-dull) (out of live cells) (Pgp^+ T cells; [11]): 13% | % Pgp^+ (DiOC2(3)-dull) (out of live cells) (Pgp^+ T cells; [12]): 14% | % Pgp^+ (DiOC2(3)-dull) (out of live cells) (Pgp^+ T cells; [13]): 14% | % Pgp+ (DiOC2(3)-dull) (gated on live cells) (Pgp^+ T cells; 0.5 ng/ml, continuous exposure): 7% | % Pgp+ (DiOC2(3)-dull) (gated on live cells) (Pgp^+ T cells; 1 ng/ml, continuous exposure): 7% | % Pgp+ (DiOC2(3)-dull) (gated on live cells) (Pgp^+ T cells; 2 ng/ml, continuous exposure): 7% | % Pgp+ (DiOC2(3)-dull) (gated on live cells) (Pgp^+ T cells; 2.5 ng/ml, continuous exposure): 7% | % Pgp+ (DiOC2(3)-dull) (gated on live cells) (Pgp^+ T cells; 3 ng/ml, continuous exposure): 9% | % Pgp+ (DiOC2(3)-dull) (gated on live cells) (Pgp^+ T cells; 5 ng/ml, continuous exposure): 8% | % Pgp+ (DiOC2(3)-dull) (gated on live cells) (Pgp^+ T cells; 10 ng/ml, continuous exposure): 10% | % Pgp+ (DiOC2(3)-dull) (gated on live cells) (Pgp^+ T cells; 20 ng/ml, continuous exposure): 10% | % Pgp+ (DiOC2(3)-dull) (gated on live cells) (Pgp^+ T cells; 50 ng/ml, continuous exposure): 9% | % Pgp+ (DiOC2(3)-dull) (gated on live cells) (Pgp^+ T cells; [9]): 13% | % Pgp+ (DiOC2(3)-dull) (gated on live cells) (Pgp^+ T cells; [10]): 11% | % Pgp+ (DiOC2(3)-dull) (gated on live cells) (Pgp^+ T cells; [11]): 9% | % Pgp+ (DiOC2(3)-dull) (gated on live cells) (Pgp^+ T cells; [12]): 10% | % Pgp+ (DiOC2(3)-dull) (gated on live cells) (Pgp^+ T cells; [13]): 18% | enrichment of Pgp^+ cells (in words) (Pgp^+ T cells; higher dose treatments, after 2 days): modest enrichment | % Cell Death (PI+ cells) (T cells [1]; 2 days post-treatment, 5 ng/ml, continuous exposure): 13% | % Cell Death (PI+ cells) (T cells [1]; 2 days post-treatment, 10 ng/ml, continuous exposure): 15% | % Cell Death (PI+ cells) (T cells [1]; 2 days post-treatment, 20 ng/ml, continuous exposure): 15% | % Cell Death (PI+ cells) (T cells [1]; 2 days post-treatment, 30 ng/ml, continuous exposure): 20% | % Cell Death (PI+ cells) (T cells [1]; 2 days post-treatment, 50 ng/ml, continuous exposure): 15% | % Cell Death (PI+ cells) (T cells [1]; 2 days post-treatment, 100 ng/ml for 24 h then drug-free medium): 28% | % Cell Death (PI+ cells) (T cells [1]; 2 days post-treatment, 250 ng/ml for 24 h then drug-free medium): 31% | % Cell Death (PI+ cells) (T cells [1]; 2 days post-treatment, 500 ng/ml for 24 h then drug-free medium): 27% | % Cell Death (PI+ cells) (T cells [1]; 2 days post-treatment, 750 ng/ml for 24 h then drug-free medium): 30% | % Cell Death (PI+ cells) (T cells [1]; 2 days post-treatment, 1 μg/ml for 24 h then drug-free medium): 31% | % Cell Death (PI+ cells) (T cells [1]; 7 days post-treatment, 0.5 ng/ml, continuous exposure): 10% | % Cell Death (PI+ cells) (T cells [1]; 7 days post-treatment, 1 ng/ml, continuous exposure): 12% | % Cell Death (PI+ cells) (T cells [1]; 7 days post-treatment, 2 ng/ml, continuous exposure): 8% | % Cell Death (PI+ cells) (T cells [1]; 7 days post-treatment, 2.5 ng/ml, continuous exposure): 10% | % Cell Death (PI+ cells) (T cells [1]; 7 days post-treatment, 3 ng/ml, continuous exposure): 14% | % Cell Death (PI+ cells) (T cells [1]; 7 days post-treatment, 5 ng/ml, continuous exposure): 9% | % Cell Death (PI+ cells) (T cells [1]; 7 days post-treatment, 10 ng/ml, continuous exposure): 9% | % Cell Death (PI+ cells) (T cells [1]; 7 days post-treatment, 20 ng/ml, continuous exposure): 9% | % Cell Death (PI+ cells) (T cells [1]; 7 days post-treatment, 50 ng/ml, continuous exposure): 14% | % Cell Death (PI+ cells) (T cells [1]; 7 days post-treatment, 100 ng/ml for 24 h then drug-free medium): 16% | % Cell Death (PI+ cells) (T cells [1]; 7 days post-treatment, 250 ng/ml for 24 h then drug-free medium): 25% | % Cell Death (PI+ cells) (T cells [1]; 7 days post-treatment, 500 ng/ml for 24 h then drug-free medium): 26% | % Cell Death (PI+ cells) (T cells [1]; 7 days post-treatment, 750 ng/ml for 24 h then drug-free medium): 29% | % Cell Death (PI+ cells) (T cells [1]; 7 days post-treatment, 1 μg/ml for 24 h then drug-free medium): 23%
